For orientation: IC50 means the midpoint of a concentration-inhibition curve.

Common to all, as to format: cell-based
One assay has as its target T1, Sppl2a CD74 (Mus musculus, UniProt Q9JJF9).
T1 construct: Mouse whole blood Balb/c mice (sodium citrate) was ordered by Bioreclamation LLC; tissue Bioreclamation LLC
T1 sequence (Q9JJF9 26-523): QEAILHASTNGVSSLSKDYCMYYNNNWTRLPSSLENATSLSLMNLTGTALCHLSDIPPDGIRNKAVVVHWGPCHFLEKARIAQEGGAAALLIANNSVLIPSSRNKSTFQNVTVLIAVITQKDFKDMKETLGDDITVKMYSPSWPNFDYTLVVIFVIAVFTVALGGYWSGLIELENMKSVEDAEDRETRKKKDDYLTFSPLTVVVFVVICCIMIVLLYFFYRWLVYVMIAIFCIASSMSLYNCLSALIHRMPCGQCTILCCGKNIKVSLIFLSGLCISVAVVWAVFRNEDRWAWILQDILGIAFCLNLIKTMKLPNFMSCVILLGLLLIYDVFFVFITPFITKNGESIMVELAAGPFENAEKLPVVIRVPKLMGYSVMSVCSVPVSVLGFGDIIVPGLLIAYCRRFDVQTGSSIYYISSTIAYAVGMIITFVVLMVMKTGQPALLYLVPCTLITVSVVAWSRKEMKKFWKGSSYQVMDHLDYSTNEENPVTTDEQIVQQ
Briefly: CD74/p8 mouse whole blood assay, flow cytometry format. The settings on record: Balb/c mouse whole blood, 5 h, CD74 signal on gated live B cells. The method, boiled down: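 Balb/c mouse whole blood (citrate) incubated 5 h at 37 °C with compounds, 11-point dilution from 30 μM top. After RBC lysis, live B220+ B cells stained intracellularly for CD74 (FITC) and analysed by flow cytometry. IC50 fitted from CD74 median fluorescence intensity.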

The target of assay [1] is T2, human SPPL2a (Homo sapiens, UniProt Q8TCT8).
T2 sequence (Q8TCT8 26-520): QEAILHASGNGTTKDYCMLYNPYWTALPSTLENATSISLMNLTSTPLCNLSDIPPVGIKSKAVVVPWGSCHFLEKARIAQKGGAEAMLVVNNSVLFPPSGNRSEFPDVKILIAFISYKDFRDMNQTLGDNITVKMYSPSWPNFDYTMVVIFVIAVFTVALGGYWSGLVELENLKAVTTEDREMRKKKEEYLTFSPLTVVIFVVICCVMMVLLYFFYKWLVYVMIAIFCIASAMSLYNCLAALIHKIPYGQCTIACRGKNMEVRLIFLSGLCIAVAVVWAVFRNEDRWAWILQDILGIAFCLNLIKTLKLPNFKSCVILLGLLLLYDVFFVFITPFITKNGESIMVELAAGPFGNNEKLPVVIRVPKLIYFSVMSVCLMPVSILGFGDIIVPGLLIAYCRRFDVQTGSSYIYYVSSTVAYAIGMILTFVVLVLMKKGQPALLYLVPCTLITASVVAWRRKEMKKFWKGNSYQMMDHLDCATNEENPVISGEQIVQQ
Nature of the assay: Sppl2a TL (translocation) imaging assay in U-2 OS cells. Details: expressed in transfected cells. Particulars: U-2 OS cells expressing human SPPL2a and EGFP-TNFα(aa1-76) NTF substrate; 24 h. The method, boiled down: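 U-2 OS cells stably expressing human SPPL2a plus doxycycline-induced EGFP-TNFα(aa1-76) NTF, treated 24 h at 37 °C with inhibitor (100 μM–1 nM, 11 points, 0.9% DMSO, 5 μg/mL doxycycline). Imaging of nuclear-minus-cytoplasmic EGFP intensity; % inhibition versus 0.5 μM LY-411,575 and DMSO, IC50 by nonlinear regression; CC50 from cell count.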

Assay [2] has as its target T2, human SPPL2a. Nature of the assay: Sppl2a RGA (reporter gene assay) in HEK293 cells. Also noted: expressed in transfected cells; host or cells: HEK293 (transient). The settings on record: NT-TNF-VP16-Gal4 substrate, Gal4-luciferase reporter, 24 h. The method, boiled down: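 HEK293 cells transiently co-transfected with human SPPL2a, NT-TNF-VP16-Gal4 substrate and Gal4-luciferase reporter, compound added within 5 h. After 24 h at 37 °C, luciferase luminescence measured; IC50 from concentration versus normalized luminescence.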
Background: Reporter assays use an easily measured gene product as a stand-in for the process of interest.

Regarding `Cc1nc(C(=O)NCC(F)F)sc1C(=O)NC[C@H](C(=O)N[C@@H]1C(=O)N2CCCN2Cc2ccccc21)C1CC1` [Example 6, N^5-((R)-2-Cyclopropyl-3-oxo-3-(((S)-11-oxo-2,3,10,11-tetrahydro-1H,5H-benzo[d]pyrazolo [1,2-a][1,2]diazepin-10-yl)amino)propyl)-N^2-(2,2-difluoroethyl)-4-methylthiazole-2,5-dicarboxamide], the IC50 on Sppl2a CD74 is 1560 nM; on human SPPL2a [1], 2 nM; on human SPPL2a [2] it was 2 nM.

Take `Cc1cc(-c2cc(NC(=O)C[C@@H](C)C(=O)N[C@@H]3C(=O)N4CCCN4Cc4ccccc43)n(C)n2)on1` [Example 90, (R)-2-Methyl-N^4. (1-methyl-3-(3-methylisoxazol-5-yl)-1H-pyrazol-5-yl)-N^1-((S)-11-oxo-2,3,10,11-tetrahydro-1H,5H-benzo[d]pyrazolo [1,2-a][1,2]diazepin-10-yl)succinamide]: the IC50 on Sppl2a CD74 was 635 nM; against human SPPL2a [1] it was 11 nM; against human SPPL2a [2] it was 11 nM.

For `CCNC(=O)c1nc(C)c(C(=O)NC[C@H](C(=O)N[C@@H]2C(=O)N3CCCN3Cc3ccccc32)C(F)(F)F)s1` [Example 7, N^2-Ethyl-4-methyl-N^5-((R)-3,3,3-trifluoro-2-(((S)-11-oxo-2,3,10,11-tetrahydro-1H,5H-benzo[d]pyrazolo [1,2-a][1,2]diazepin-10-yl)carbamoyl)pro-pyl)thiazole-2,5-dicarboxamide], the IC50 at Sppl2a CD74 is 120 nM; at human SPPL2a [1] it was 3 nM; against human SPPL2a [2], 2 nM.

For `Cc1nc(C(=O)NC(C)C)sc1C(=O)NC[C@@H](C)C(=O)N[C@@H]1C(=O)N2CCCN2Cc2ccccc21` [Example 24, N^2-Isopropyl-4-methyl-N^5-((R)-2-methyl-3-oxo-3-(((S)-11-oxo-2,3,10,11-tetrahydro-1H,5H-benzo[d]pyrazolo [1,2-a][1,2]diazepin-10-yl)amino)propyl) thiazole-2,5-dicarboxamide], the results for the IC50 at Sppl2a CD74, on human SPPL2a [1] and at human SPPL2a [2] were 1660 nM, 21 nM and 33 nM, respectively.

On to `Cc1nc(C2CCOCC2)sc1C(=O)NC[C@H](C(=O)N[C@@H]1C(=O)N2CCCN2Cc2ccccc21)C(F)(F)F` [Example 50, 4-Methyl-2-(tetrahydro-2H-pyran-4-yl)-N-((R)-3,3,3-trifluoro-2-(((S)-11-oxo-2,3,10,11-tetrahydro-1H,5H-benzo[d]pyrazolo [1,2-a][1,2]diazepin-10-yl)carbamoyl)pro-pyl)thiazole-5-carboxamide], for which the IC50 was 1390 nM against Sppl2a CD74, 97 nM at human SPPL2a [1] and 90 nM at human SPPL2a [2].

In the case of `CC[C@H](CNC(=O)c1c(C)noc1C(F)(F)F)C(=O)N[C@@H]1C(=O)N2CCCN2Cc2ccccc21` [Example 17, 3-Methyl-N-((R)-2-(((5)-11-oxo-2,3,10,11-tetrahydro-1H,5H-benzo[d]pyrazolo [1,2-a][1,2]diazepin-10-yl)carbamoyl)butyl)-5-(trifluoromethyl) isoxazole-4-carboxamide], the values for the IC50 at Sppl2a CD74, against human SPPL2a [1] and against human SPPL2a [2] were 2350 nM, 11 nM and 5 nM, respectively.

On to `Cc1nc(NC(=O)C(C)C)sc1C(=O)NC[C@@H](C)C(=O)N[C@@H]1C(=O)N2CCCN2Cc2ccccc21` [Example 4, 2-Isobutyramido-4-methyl-N-((R)-2-methyl-3-oxo-3-(((S)-11-oxo-2,3,10,11-tetrahydro-1H,5H-benzo[d]pyrazolo [1,2-a][1,2]diazepin-10-yl)amino)propyl) thiazole-5-carboxamide], for which the IC50 against Sppl2a CD74 came to 100 nM; at human SPPL2a [1], 1 nM; on human SPPL2a [2] it was 12 nM.

Consider `C[C@H](CC(=O)Nc1cc(NC(=O)C(C)(C)C)nn1C)C(=O)N[C@@H]1C(=O)N2CCCN2Cc2ccccc21` [Example 89, (R)-2-Methyl-N^4-(1-methyl-3-pivalamido-1H-pyrazol-5-yl)-N^1-((S)-11-oxo-2,3,10,11-tetrahydro-1H,5H-benzo[d]pyrazolo [1,2-a][1,2]diazepin-10-yl)succinamide], for which the IC50 against Sppl2a CD74 was 649 nM; on human SPPL2a [1], 11 nM; against human SPPL2a [2], 60 nM.

With `CC(C)NC(=O)c1cc(NC(=O)C[C@H](C(=O)N[C@@H]2C(=O)N3CCCN3Cc3c(F)cccc32)C2CC2)n(C)n1` [Example 77, (S)-2-Cyclopropyl-N^1-((S)-6-fluoro-11-oxo-2,3,10,11-tetrahydro-1H,5H-benzo[d]pyrazolo [1,2-a][1,2]diazepin-10-yl)-N^4-(3-(isopropylcarba-moyl)-1-methyl-1H-pyrazol-5-yl)succinamide], the results for the IC50 against Sppl2a CD74, at human SPPL2a [1] and on human SPPL2a [2] were 250 nM, 6 nM and 5 nM, respectively.

For `CC(C)C(=O)Nc1cc(NC(=O)C[C@H](C(=O)N[C@@H]2C(=O)N3CCCN3Cc3ccccc32)C2CCC2)n(C)n1` [Example 63, (S)-2-Cyclobutyl-N^4-(3-isobutyramido-1-methyl-1H-pyrazol-5-yl)-N^1-((S)-11-oxo-2,3,10,11-tetrahydro-1H,5H-benzo[d]pyrazolo [1,2-a][1,2]diazepin-10-yl)succinamide], the IC50 was found to be 343 nM at Sppl2a CD74, 0.6 nM on human SPPL2a [1] and 11 nM against human SPPL2a [2].

As to `C[C@@H](CF)NC(=O)c1cc(NC(=O)C[C@H](C(=O)N[C@@H]2C(=O)N3CCCN3Cc3c(F)cccc32)C2CC2)n(C)n1` [Example 100, (S)-2-Cyclopropyl-N^1-((S)-6-fluoro-11-oxo-2,3,10,11-tetrahydro-1H,5H-benzo[d]pyrazolo [1,2-a][1,2]diazepin-10-yl)-N^4-(3-(((S)-1-fluoropropan-2-yl)carbamoyl)-1-methyl-1H-pyrazol-5-yl)succinamide], the IC50 against Sppl2a CD74 stood at 272 nM; at human SPPL2a [1], 15 nM; at human SPPL2a [2] it was 28 nM.

On to `Cc1cc(-c2nc(C)c(C(=O)NC[C@@H](C)C(=O)N[C@@H]3C(=O)N4CCCN4Cc4ccccc43)s2)on1` [Example 23, 4-Methyl-N-((R)-2-methyl-3-oxo-3-(((S)-11-oxo-2,3,10,11-tetrahydro-1H,5H-benzo[d]pyrazolo [1,2-a][1,2]diazepin-10-yl)amino)propyl)-2-(3-methylisoxazol-5-yl)thiazole-5-carboxamide], for which the IC50 against Sppl2a CD74 was found to be 992 nM; at human SPPL2a [1], 16 nM; against human SPPL2a [2], 21 nM.

Consider `Cc1nc(C(=O)NCC(F)F)sc1C(=O)NC[C@@H](C)C(=O)N[C@@H]1C(=O)N2CCCN2Cc2ccccc21` [Example 21, N^2-(2,2-Difluoroethyl)-4-methyl-N^5-((R)-2-methyl-3-oxo-3-(((S)-11-oxo-2,3,10,11-tetrahydro-1H,5H-benzo[d]pyrazolo [1,2-a][1,2]diazepin-10-yl)amino)propyl) thiazole-2,5-dicarboxamide], for which the figures for the IC50 at Sppl2a CD74, against human SPPL2a [1] and on human SPPL2a [2] were 5940 nM, 13 nM and 7 nM, respectively.

`CC[C@H](CNC(=O)c1sc(C2CC2)nc1C)C(=O)N[C@@H]1C(=O)N2CCCN2Cc2ccccc21` [Example 47, 2-Cyclopropyl-4-methyl-N-((R)-2-(((S)-11-oxo-2,3,10,11-tetrahydro-1H,5H-benzo[d]pyrazolo [1,2-a][1,2]diazepin-10-yl)carbamoyl)butyl) thiazole-5-carboxamide]: the IC50 was determined as 741 nM at Sppl2a CD74, 83 nM at human SPPL2a [1] and 41 nM against human SPPL2a [2].

For the origin of these results see patent US20230365571A1, “COMPOUNDS AND COMPOSITIONS AS Sppl2a INHIBITORS” (Novartis AG, priority 2020, published 2023).
